Target: EGR-1 (Homo sapiens, UniProt P18146)
Experiment: EGR-1 DNA binding activity assay (EDBA)
Design: made in house
Conditions: EGR-1 DNA binding inhibitory activity; EGR-1 overexpressing cell lysate; absorbance at 450 nm; compound concentration not given
Protocol: In this experiment, the inhibitory effect of the compounds of the present invention on EGR-1 binding activity was evaluated using an EGR-1 DNA binding activity assay (EDBA).
Single-stranded sense and antisense oligonucleotides of the following EGR-1 binding sequence (EBS) were prepared by outsourcing to Bioneer Co., Ltd. (Daejeon, Korea). In this case, the 5'-end of the sense oligonucleotide was labeled with biotin. The sense and antisense oligonucleotides were heated at 95 °C for 5 minutes and then left overnight at room temperature to hybridize the sense and antisense oligonucleotides. Hereinafter, the hybridized sense and antisense oligonucleotides are referred to as biotin-EBS. • Sense sequence: biotin-5'-[…]-3' • Antisense sequence: 5'-[…]-3'
Avidin protein was coated on a 96-well plate (purchased from Thermo Fisher Scientific), and biotin-EBS was added to the plate at a concentration of 0.5 pmol/50 µL/well, followed by reaction at 37 °C for 1 hour to allow biotin-EBS oligonucleotide to be attached to the plate. After washing three times with phosphate buffer saline containing 0.05% Tween 20 (PBS/Tween 20) to remove unattached biotin-EBS oligonucleotides, 200 µL of PBS/Tween 20 solution containing 2% bovine serum albumin (BSA) was added to each well, followed by reaction at 37 °C for 1 hour to block the surface of the plate where no oligonucleotide was attached.
The solution containing the sample compound and the EGR-1 protein was added to the biotin-EBS oligonucleotide coated plate prepared in step (2).
The compound sample (1 µL) was reacted with the EGR-1 overexpressing cell lysate containing 10 mM Tris, pH 7.5, 50 mM KCl, 2% BSA and 8% glycerol at room temperature for 30 minutes, and then added to a reaction well coated with biotin-EBS and further reacted at room temperature for one hour. After washing three times with PBS/Tween 20 solution, an EGR-1 antibody was added to the PBS solution supplemented with 2% BSA and 5 mM NaCl in an amount of 50 µL per each well. The mixture was incubated at room temperature for one hour, washed three times with PBS/Tween 20 solution, and then treated with horseradish peroxidase-conjugated secondary antibody (Goat anti-rabbit IgG antibody, Cell Signaling Technology company, Danvers, Mass., USA) diluted by 1:1000 at room temperature for one hour. After washing five times with PBS/Tween 20 solution, a substrate tetramethylbenzidine solution was added to each well in an amount of 50 µL. After reacting for 5 minutes, the reaction was stopped by adding 100 µL of 2 N sulfuric acid solution. The DNA binding inhibitory activity of EGR-1 was measured by absorbance at 450 nm according to Equation 1 below. EGR-1 DNA binding inhibitory activity (%) = 100−{(As/Ap)×100} [formula]
As: absorbance of a sample prepared by reacting an EGR-1-overexpressing cell lysate with the compound.
Ap: absorbance of the sample treated only with EGR-1-overexpressing cell lysate.

Chain of EGR-1 (P18146 whole entry): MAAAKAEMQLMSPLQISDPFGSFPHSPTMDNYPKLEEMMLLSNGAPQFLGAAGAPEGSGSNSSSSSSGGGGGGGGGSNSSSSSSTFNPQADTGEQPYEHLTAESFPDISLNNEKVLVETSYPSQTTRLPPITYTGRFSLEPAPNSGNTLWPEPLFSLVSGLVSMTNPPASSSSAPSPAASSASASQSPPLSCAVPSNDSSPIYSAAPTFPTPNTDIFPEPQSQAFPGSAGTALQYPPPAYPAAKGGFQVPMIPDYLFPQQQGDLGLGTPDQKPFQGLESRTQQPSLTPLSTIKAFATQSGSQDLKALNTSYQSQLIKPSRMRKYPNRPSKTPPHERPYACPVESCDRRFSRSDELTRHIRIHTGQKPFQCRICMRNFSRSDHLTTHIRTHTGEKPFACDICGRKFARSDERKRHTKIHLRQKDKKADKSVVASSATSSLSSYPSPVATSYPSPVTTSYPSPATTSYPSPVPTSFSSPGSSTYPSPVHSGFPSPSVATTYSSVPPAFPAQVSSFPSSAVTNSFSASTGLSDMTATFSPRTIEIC

Row | SMILES | Inhibition Rate (%)
1 | NNC(=S)Nc1cccc(C(F)(F)F)c1 [Compound 1, N-(3-(trifluoromethyl)phenyl)hydrazinethioamide] | 23.60
2 | NNC(=S)Nc1ccc(F)cc1 [Compound 2, N-(4-fluorophenyl)hydrazinethioamide] | 25.70
3 | NNC(=S)Nc1ccc(Br)cc1 [Compound 3, N-(4-bromophenyl)hydrazinethioamide] | 20.73
4 | N#Cc1ccc(NC(=S)NN)cc1 [Compound 4, N-(4-cyanophenyl)hydrazinethioamide] | 16.27
5 | NNC(=S)Nc1ccc(C(F)(F)F)cc1 [Compound 5, N-(4-(trifluoromethyl)phenyl)hydrazinethioamide] | 6.33
6 | CCNC(=S)NN [Compound 6, N-ethylhydrazinethioamide] | 27.00
7 | CC(C)NC(=S)NN [Compound 7, N-isopropylhydrazinethioamide] | 23.33
8 | CC(C)CNC(=S)NN [Compound 8, N-isobutylhydrazinethioamide] | 38.73
9 | NNC(=S)NC(=O)c1ccccc1 [Compound 9, N-(hydrazinocarbonothioyl)benzamide] | 42.17
10 | NNC(=S)NCc1ccccc1 [Compound 10, N-benzylhydrazinethioamide] | 35.47
11 | Cc1cccc(NC(=S)NN)c1 [Compound 11, N-(m-tolyl)hydrazinethioamide] | 18.67
12 | O=C1Nc2ccc(F)cc2/C1=N/NC(=S)Nc1ccccc1 [Compound 12, (Z)-2-(5-fluoro-2-oxoindolin-3-ylidene)-N-phenylhydrazinethioamide] | 28.97
13 | O=C1Nc2ccc(F)cc2/C1=N/NC(=S)Nc1cccc([N+](=O)[O-])c1 [Compound 13, (Z)-2-(5-fluoro-2-oxoindolin-3-ylidene)-N-(3-nitrophenyl)hydrazinethioamide] | 25.57
14 | O=C1Nc2ccc(F)cc2/C1=N/NC(=S)Nc1ccc(F)cc1 [Compound 14, (Z)-2-(5-fluoro-2-oxoindolin-3-ylidene)-N-(4-fluorophenyl)hydrazinethioamide] | 17.80
15 | O=C1Nc2ccc(F)cc2/C1=N/NC(=S)Nc1ccc(Br)cc1 [Compound 15, (Z)-N-(4-bromophenyl)-2-(5-fluoro-2-oxoindolin-3-ylidene)hydrazinethioamide] | 37.07
16 | N#Cc1ccc(NC(=S)N/N=C2\C(=O)Nc3ccc(F)cc32)cc1 [Compound 16, (Z)-N-(4-cyanophenyl)-2-(5-fluoro-2-oxoindolin-3-ylidene)hydrazinethioamide] | 40.57
17 | O=C1Nc2ccc(F)cc2/C1=N/NC(=S)Nc1ccc(C(F)(F)F)cc1 [Compound 17, (Z)-2-(5-fluoro-2-oxoindolin-3-ylidene)-N-(4-(trifluoromethyl)phenyl)hydrazinethioamide] | 25.57
18 | O=C1Nc2c(F)cccc2/C1=N/NC(=S)Nc1ccc(F)cc1 [Compound 18, (Z)-2-(7-fluoro-2-oxoindolin-3-ylidene)-N-(4-fluorophenyl)hydrazinethioamide] | 33.80
19 | O=C1Nc2c(F)cccc2/C1=N/NC(=S)Nc1ccc(Br)cc1 [Compound 19, (Z)-N-(4-bromophenyl)-2-(7-fluoro-2-oxoindolin-3-ylidene)hydrazinethioamide] | 47.77
20 | N#Cc1ccc(NC(=S)N/N=C2\C(=O)Nc3c(F)cccc32)cc1 [Compound 20, (Z)-N-(4-cyanophenyl)-2-(7-fluoro-2-oxoindolin-3-ylidene)hydrazinethioamide] | 44.93
21 | COc1ccc2c(c1)NC(=O)/C2=N\NC(=S)Nc1ccccc1 [Compound 22, (Z)-2-(6-methoxy-2-oxoindolin-3-ylidene)-N-phenylhydrazinethioamide] | 51.33
22 | COc1ccc2c(c1)NC(=O)/C2=N\NC(=S)Nc1ccccc1OC [Compound 24, (Z)-2-(6-methoxy-2-oxoindolin-3-ylidene)-N-(2-methoxyphenyl)hydrazin-1-carbothioamide] | 42.00

Reference: EP4799619A1, “COMPOUND TARGETING EGR-1 AND USE THEREOF FOR TREATMENT OF ATOPIC DERMATITIS” (AgeraMedi, Inc., priority 2023, dated 2025)
